Where two headings read alike, the source gives them in different places.
Tests used:
[1] = biological target: T1, Full-length (FL)-PRMT5-MEP50 enzyme complex (Homo sapiens, UniProt O14744); experiment: PRMT5-MEP50 Enzyme Methylation Assay (Version A); format: biochemical
T1 construct: Full-length (FL)-PRMT5-MEP50 enzyme complex (recombinant proteins from baculovirus-transfected Sf21 cells: FL-PRMT5; MW=73837 kDa and FL-MEP50; MW=38614); made in house; host or cells: baculovirus-transfected Sf21 cells
T1 sequence (O14744 whole entry): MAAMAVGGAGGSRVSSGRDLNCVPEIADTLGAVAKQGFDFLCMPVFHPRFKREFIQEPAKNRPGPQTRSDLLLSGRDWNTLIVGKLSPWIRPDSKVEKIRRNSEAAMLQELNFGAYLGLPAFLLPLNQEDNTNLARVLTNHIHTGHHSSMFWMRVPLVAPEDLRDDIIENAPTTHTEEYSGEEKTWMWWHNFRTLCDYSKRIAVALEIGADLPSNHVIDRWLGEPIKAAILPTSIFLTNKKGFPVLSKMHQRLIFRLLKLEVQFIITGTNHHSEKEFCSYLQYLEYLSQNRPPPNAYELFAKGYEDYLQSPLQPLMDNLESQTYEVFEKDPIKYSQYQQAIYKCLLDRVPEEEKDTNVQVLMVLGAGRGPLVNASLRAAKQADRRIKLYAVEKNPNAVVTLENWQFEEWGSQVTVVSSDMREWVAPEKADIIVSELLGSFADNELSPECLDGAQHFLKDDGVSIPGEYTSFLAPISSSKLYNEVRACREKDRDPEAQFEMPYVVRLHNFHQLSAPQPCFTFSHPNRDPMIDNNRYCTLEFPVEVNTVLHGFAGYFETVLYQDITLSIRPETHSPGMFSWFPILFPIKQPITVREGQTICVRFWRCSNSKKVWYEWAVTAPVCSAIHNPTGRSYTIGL
T1 sequence (Q9BQA1 whole entry partner): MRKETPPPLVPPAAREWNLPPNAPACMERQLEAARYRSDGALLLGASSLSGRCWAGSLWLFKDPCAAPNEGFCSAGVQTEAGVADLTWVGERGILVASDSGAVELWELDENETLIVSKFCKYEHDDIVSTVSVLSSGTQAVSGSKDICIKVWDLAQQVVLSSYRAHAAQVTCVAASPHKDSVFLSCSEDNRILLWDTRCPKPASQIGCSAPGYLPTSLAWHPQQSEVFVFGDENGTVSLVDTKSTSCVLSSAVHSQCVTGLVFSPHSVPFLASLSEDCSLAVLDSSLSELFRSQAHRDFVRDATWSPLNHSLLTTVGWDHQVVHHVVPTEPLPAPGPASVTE
Summary of the method: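 Compound was pre-incubated with enzyme for 60 min, then reacted 150 min at 37° C. at final 1.0 nM PRMT5-MEP50, 15 μM SAM and 75 nM biotinylated H4R3(Me1) peptide, in 50 mM Bicine pH 8.0 with 1% DMSO. SAMDI mass-spectrometric readout of Me1→Me2 conversion. EC50 from 4- or 7-parameter regression.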

[2] = system: symmetric dimethylation of arginine (SDMA) of PRMT5 substrates in MCF-7 cells; experiment: PRMT5 Cell Target Engagement (TE) Assay; format: cell-based; settings: 3 days treatment, SDMA high content imaging
Summary of the method: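 MCF-7 cells treated 3 days at 37 °C with a ten-point 1:3 titration from 10000 nM. Fixed cells immunostained with anti-SDMA and Alexa488 secondary; nuclear fluorescence quantified by high-content imaging versus DMSO wells, with IC50 from a 4-parameter fit.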

[3] = second value of 7 parameter biphasic fit, read-out: Enzyme Methylation Assay Version A (EC50 2)
[4] = single EC50 = 4 parameter single site sigmoidal fit, EC50 1 = first value of 7 parameter biphasic fit, read-out: Enzyme Methylation Assay Version A (EC50 or EC50 1)

Row | SMILES | EC50 [1, 3] [nM] | EC50 [1, 4] [nM] | EC50 ([2]; Homo sapiens, MCF7, 72 h) [nM] | EC50 [2] [nM]
1 | O=C(c1ccnc(-n2cnnn2)c1)N1CC[C@]2(Cc3ccccc3CN2)[C@H](O)C1 [Example 187, (2-(1H-tetrazol-1-yl)pyridin-4-yl)((3R,3′R)-3′-hydroxy-1,4-dihydro-2H-spiro[isoquinoline-3,4′-piperidin]-1′-yl)methanone] | 26900 | 75.9 | 4280 | 
2 | O=C(c1cnc2ncc(Cl)cn12)N1CC[C@]2(Cc3ccccc3CN2)[C@H](O)C1 [Example 56, (6-chloroimidazo[1,2-a]pyrimidin-3-yl)[(3R,3′R)-3′-hydroxy-1,4-dihydro-1′H,2H-spiro[isoquinoline-3,4′-piperidin]-1′-yl]methanone] | 10000 | 12.4 | 82.1 | 
3 | CC(n1ccc(C(=O)N2CC[C@]3(Cc4ccccc4CN3)[C@H](O)C2)cc1=O)C(F)(F)F (single isomer, unassigned) [Example 102, 4-((3R,3′R)-3′-hydroxy-2,4-dihydro-1H-spiro[isoquinoline-3,4′-piperidin]-1′-ylcarbonyl)-1-((S or R)-1,1,1-trifluoropropan-2-yl)pyridin-2(1H)-one] | 34700 | 52.1 |  | 800
4 | CN(C)C(=O)c1ccc2nc(C(=O)N3CC[C@]4(Cc5ccccc5CN4)[C@H](O)C3)cn2c1 [Example 2, 2-((3R,3′R)-3′-hydroxy-2,4-dihydro-1H-spiro[isoquinoline-3,4′-piperidin]-1′-ylcarbonyl)-N,N-dimethylimidazo[1,2-a]pyridine-6-carboxamide] | 1380 | 0.629 | 75.8 | 
5 | COCC1CC(C)Cn2cc(C(=O)N3CC[C@]4(Cc5ccccc5CN4)[C@H](O)C3)nc21 (single isomer, unassigned) [Example 159] | 22400 | 61.7 |  | 527
6 | Cc1nc(C(F)(F)F)cn2cc(C(=O)N3CC[C@]4(Cc5ccccc5CN4)[C@H](O)C3)nc12 [Example 72, [(3R,3′R)-3′-hydroxy-1,4-dihydro-1′H,2H-spiro[isoquinoline-3,4′-piperidin]-1′-yl][8-methyl-6-(trifluoromethyl)imidazo[1,2-a]pyrazin-2-yl]methanone] | 335 | 3.85 | 78.5 | 
7 | O=C(c1cn2cc(C3CC3(F)F)cnc2n1)N1CC[C@]2(Cc3ccccc3CN2)[C@H](O)C1 (single isomer, unassigned) [Example 75] | 112 | 1.66 | 27.5 | 
8 | CO[C@H](C)c1cc(-c2cnn(C)c2C)cn2cc(C(=O)N3CC[C@]4(Cc5ccccc5CN4)[C@H](O)C3)nc12 [Example 245, {6-(1,5-dimethyl-1H-pyrazol-4-yl)-8-[(1R)-1-methoxyethyl]imidazo[1,2-a]pyridin-2-yl}[(3R,3′R)-3′-hydroxy-1,4-dihydro-1′H,2H-spiro[isoquinoline-3,4′-piperidin]-1′-yl]methanone] |  | 1.24 | 2.65 | 
9 | O=C(c1cn(-c2ccc(F)cc2)cn1)N1CC[C@]2(Cc3ccccc3CN2)[C@H](O)C1 [Example 212, [1-(4-fluorophenyl)-1H-imidazol-4-yl][(3R,3′R)-3′-hydroxy-1,4-dihydro-1′H,2H-spiro[isoquinoline-3,4′-piperidin]-1′-yl]methanone] | 21400 | 902 | 3120 | 
10 | Cn1c(=O)c(Br)cn2cc(C(=O)N3CC[C@]4(Cc5ccccc5CN4)[C@H](O)C3)nc12 (single isomer, unassigned) [Example 249] | 8510 | 20.8 | 311 | 
11 | CO[C@H](C)c1cc(N2CC3(CCCO3)C2)cn2cc(C(=O)N3CC[C@]4(Cc5ccccc5CN4)[C@H](O)C3)nc12 [Example 236, [(3R,3′R)-3′-hydroxy-1,4-dihydro-1′H,2H-spiro[isoquinoline-3,4′-piperidin]-1′-yl]{8-[(1R)-1-methoxyethyl]-6-(5-oxa-2-azaspiro[3.4]oct-2-yl)imidazo[1,2-a]pyridin-2-yl}methanone] |  | 7.09 | 20.6 | 
12 | N#CCCC1CC(C(F)(F)F)Cn2cc(C(=O)N3CC[C@]4(Cc5ccccc5CN4)[C@H](O)C3)nc21 (single isomer, unassigned) [Example 165, 3-((6R,8S or 6S,8R)-2-((3R,3′R)-3′-hydroxy-1,4-dihydro-2H-spiro[isoquinoline-3,4′-piperidine]-1′-carbonyl)-6-(trifluoromethyl)-5,6,7,8-tetrahydroimidazo[1,2-a]pyridin-8-yl)propanenitrile] | 26600 | 82.2 |  | 841
13 | Cc1nn(C)c2[nH]c(C(=O)N3CC[C@]4(Cc5ccccc5CN4)[C@H](O)C3)cc(=O)c12 [Example 191, 6-{[(3R,3′R)-3′-hydroxy-1,4-dihydro-1′H,2H-spiro[isoquinoline-3,4′-piperidin]-1′-yl]carbonyl}-1,3-dimethyl-1,7-dihydro-4H-pyrazolo[3,4-b]pyridin-4-one] |  | 2880 | ≥ 10000 | 
14 | Cc1ccc2nc(C(=O)N3CC[C@]4(Cc5ccccc5CN4)[C@H](O)C3)cn2c1 [Example 40, ((3R,3’R)-3′-hydroxy-1,4-dihydro-2H-spiro[isoquinoline-3,4′-piperidin]-1′-yl)(6-methylimidazo[2,2-a]pyridin-2-yl)methanone] | 468 | 0.814 | 8.7 | 
15 | Cc1cn2cc(C(=O)N3CC[C@]4(Cc5ccccc5CN4)[C@H](O)C3)nc2c(Cl)n1 [Example 252, (8-chloro-6-methylimidazo[1,2-a]pyrazin-2-yl)[(3R,3′R)-3′-hydroxy-1,4-dihydro-1′H,2H-spiro[isoquinoline-3,4′-piperidin]-1′-yl]methanone] | 7080 | 11.7 | 680 | 
16 | O=C(c1cnc2ncc(Br)cn12)N1CC[C@]2(Cc3ccccc3CN2)[C@H](O)C1 [Example 25, (6-bromoimidazo[1,2-a]pyrimidin-3-yl)((3R,3’R)-3′-hydroxy-1,4-dihydro-1′H,2H-spiro[isoquinoline-3,4′-piperidin]-1′-yl)methanone] | 2040 | 7.12 | 30.2 | 
17 | COC(C)c1cc(Br)c2nc(C(=O)N3CC[C@]4(Cc5ccccc5CN4)[C@H](O)C3)cn2c1 (single isomer, unassigned) [Example 60] | 271 | 0.456 |  | 7.49
18 | O=C1Nc2cc(C(=O)N3CC[C@]4(Cc5ccccc5CN4)[C@H](O)C3)ccc2OC1C1CC1 (single isomer, unassigned) [Example 107, (2S or 2R)-2-cyclopropyl-6-((3R,3′R)-3′-hydroxy-1,4-dihydro-2H-spiro[isoquinoline-3,4′-piperidine]-1′-carbonyl)-2H-benzo[b][1,4]oxazin-3(4H)-one] |  | 0.272 |  | 6.67
19 | CCOc1nc(Br)cn2cc(C(=O)N3CC[C@]4(Cc5ccccc5CN4)[C@H](O)C3)nc12 [Example 10] | 180 | 0.815 | 4.21 | 
20 | COCC1CC(C)Cn2cc(C(=O)N3CC[C@]4(Cc5ccccc5CN4)[C@H](O)C3)nc21 (single isomer, unassigned) [Example 157] | 6460 | 8.94 |  | 275
21 | COC(C)c1cc(C(F)F)cn2cc(C(=O)N3CC[C@]4(Cc5ccccc5CN4)[C@H](O)C3)nc12 (single isomer, unassigned) [Example 80] |  | 1.25 |  | 8.38
22 | CCN1CCNc2cc(C(=O)N3CC[C@]4(Cc5ccccc5CN4)[C@H](O)C3)ccc2C1=O [Example 26, 4-ethyl-8-((3R,3’R)-3′-hydroxy-1,4-dihydro-1′H,2H-spiro[isoquinoline-3,4′-piperidine]-1′-carbonyl)-1,2,3,4-tetrahydro-5H-1,4-benzodiazepin-5-one] | 684 | 1.44 | 12.3 | 
23 | COc1cc(Br)cn2cc(C(=O)N3CC[C@]4(Cc5ccccc5CN4)[C@H](O)C3)nc12 [Example 50, (6-bromo-8-methoxyimidazo[1,2-a]pyridin-2-yl)((3R,3’R)-3′-hydroxy-1,4-dihydro-2H-spiro[isoquinoline-3,4′-piperidin]-1′-yl)methanone] | 62.4 | 0.38 | 1.48 | 
24 | CN1CCC(Oc2nc(Br)cn3cc(C(=O)N4CC[C@]5(Cc6ccccc6CN5)[C@H](O)C4)nc23)C1=O (single isomer, unassigned) [Example 94, (R or S)-3-((6-bromo-2-((3R,3′R)-3′-hydroxy-1,4-dihydro-2H-spiro[isoquinoline-3,4′-piperidine]-1′-carbonyl)imidazo[1,2-a]pyrazin-8-yl)oxy)-1-methylpyrrolidin-2-one] | 316 | 0.826 | 19.7 | 
25 | Cc1nc2nc(C(=O)N3CC[C@]4(Cc5ccccc5CN4)[C@H](O)C3)cn2cc1C1CC1 [Example 63, (6-cyclopropyl-7-methylimidazo[1,2-a]pyrimidin-2-yl)[(3R,3′R)-3′-hydroxy-1,4-dihydro-1′H,2H-spiro[isoquinoline-3,4′-piperidin]-1′-yl]methanone] | 417 | 0.583 | 45.8 | 
26 | CN1CC(C2CC2)Cn2cc(C(=O)N3CC[C@]4(Cc5ccccc5CN4)[C@H](O)C3)nc21 (single isomer, unassigned) [Example 139] | 767 | 8.19 |  | 212

Source: US12441730B2, “PRMT5 inhibitors” (Merck Sharp & Dohme LLC, priority 2019, dated 2025)
